Assays:
[1] = real-time fluorescence nuclease assay (fluorescein/BHQ1 20-nt ssDNA); format: biochemical, Homo sapiens; settings: read-out: IC50 SNM1A ^a /μM
Source text: (§1) real-time fluorescence nuclease assay (fluorescein/BHQ1 20-nt ssDNA) on SNM1B

SNM1A [2] = target: T1, SNM1A (Homo sapiens, UniProt Q6PJP8); assay: as above; format: biochemical
T1 construct: gene DCLRE1A; 5'-3' exonuclease with MBL and beta-CASP domains
T1 sequence (Q6PJP8 700-1040): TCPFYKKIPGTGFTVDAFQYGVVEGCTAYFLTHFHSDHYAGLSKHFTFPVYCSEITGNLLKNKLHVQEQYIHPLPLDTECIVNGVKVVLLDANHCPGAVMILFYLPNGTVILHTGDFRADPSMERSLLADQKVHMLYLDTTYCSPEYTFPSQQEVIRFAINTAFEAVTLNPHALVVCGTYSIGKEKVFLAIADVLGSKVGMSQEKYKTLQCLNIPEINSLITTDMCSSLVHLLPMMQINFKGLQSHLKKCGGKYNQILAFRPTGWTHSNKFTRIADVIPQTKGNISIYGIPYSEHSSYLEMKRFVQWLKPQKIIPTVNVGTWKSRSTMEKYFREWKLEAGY
Source text: real-time fluorescence nuclease assay (fluorescein/BHQ1 20-nt ssDNA) on SNM1A

SNM1B = target: T2, SNM1B (Homo sapiens, UniProt Q9H816); assay: as above; format: biochemical
T2 construct: gene DCLRE1B; 5'-3' exonuclease with MBL and beta-CASP domains
T2 sequence (Q9H816 1-335): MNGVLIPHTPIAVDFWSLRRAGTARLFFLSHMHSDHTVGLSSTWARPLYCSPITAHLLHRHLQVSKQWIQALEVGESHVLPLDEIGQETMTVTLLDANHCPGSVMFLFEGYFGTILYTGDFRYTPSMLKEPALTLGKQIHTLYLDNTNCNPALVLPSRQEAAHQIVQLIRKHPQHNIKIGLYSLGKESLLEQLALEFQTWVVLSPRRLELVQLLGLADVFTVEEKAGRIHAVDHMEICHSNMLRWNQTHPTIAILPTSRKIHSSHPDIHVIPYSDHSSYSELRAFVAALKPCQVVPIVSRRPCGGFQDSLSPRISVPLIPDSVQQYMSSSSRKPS
Source text: as §1

SNM1A [3] = target: T1, SNM1A; assay: quantitative 1H NMR binding assay

SMILES	IC50 [1]	IC50 (SNM1A [2])	Kd (SNM1A [3])	IC50 (SNM1B)
CC(C)(O/N=C(\C(=O)N[C@@H]1C(=O)N2C(C(=O)[O-])=C(C[n+]3ccccc3)CS[C@H]12)c1csc(N)n1)C(=O)O [Ceftazidime]	> 500 µM	> 500 µM	–	–
CC(=O)OCC1=C(C(=O)O)N2C(=O)[C@@H](N)[C@H]2SC1 [compound 1, 7-ACA]	–	7 ± 1 µM	–	32 ± 10 µM
CC(=O)OCC1=C(C(=O)O)N2C(=O)[C@@H](NC(=O)CCC[C@@H](N)C(=O)O)[C@H]2SC1 [compound 2, Cephalosporin C]	–	61 ± 27 µM	–	> 500 µM

More lines, main results first:

IC50 [1]	IC50 (SNM1A [2])	Kd (SNM1A [3])	SMILES	IC50 (SNM1B)
–	5 ± 2 µM	–	CO/N=C(\C(=O)N[C@@H]1C(=O)N2C(C(=O)O)=C(COC(C)=O)CS[C@H]12)c1csc(N)n1 [compound 3, Cefotaxime]	129 ± 20 µM
–	4 ± 2 µM	19 ± 4 µM	CO/N=C(\C(=O)N[C@@H]1C(=O)N2C(C(=O)O)=C(CSc3nc(=O)c(=O)[nH]n3C)CS[C@H]12)c1csc(N)n1 [compound 4, Ceftriaxone]	40 ± 14 µM

— article PMC5063058, “Cephalosporins inhibit human metallo β-lactamase fold DNA repair nucleases SNM1A and SNM1B/apollo” (Chemical Communications (Cambridge, England), 2016)
